Measured values reported in ChEMBL document CHEMBL5375989, “Pioneering 4,11-Dioxo-4,11-dihydro-1H-anthra[2,3-d]imidazol-3-ium Compounds as Promising Survivin Inhibitors by Targeting ILF3/NF110 for Cancer Therapy” (J Med Chem, 2023).

Legend:
[1] = system: L929; assay: (§1) Antiproliferative activity against mouse L929 cells assessed as inhibition of cell growth measured after 48 hrs by MTT assay; type: toxicity, cell-based; details: l929
[2] = Selectivity index, ratio of IC50 for mouse L929 cells to IC50 for human A549 cells; type: toxicity; details: for selectivity ratio: L929 cells and A549 cells, read-out: Ratio IC50
[3] = system: A549
Description: (§2) Antiproliferative activity against human A549 cells assessed as inhibition of cell growth measured after 48 hrs by MTT assay

[4] = as §1; type: toxicity, cell-based; details: mouse, L929 cells
[5] = system: A549; assay: cells; details: Homo sapiens, A549, 48 h
Description: as §2

[6] = system: TE-1; assay: cells; details: Homo sapiens, TE-1, 48 h
Description: Antiproliferative activity against human TE-1 cells assessed as inhibition of cell growth measured after 48 hrs by MTT assay

[7] = system: 5637; assay: cells; details: Homo sapiens, 5637, 48 h
Description: Antiproliferative activity against human 5637 cells assessed as inhibition of cell growth measured after 48 hrs by MTT assay

Row | Structure (SMILES) | IC50 [3] [nM] | IC50 [5] [nM] | IC50 [6] [nM] | IC50 [7] [nM] | IC50 [1] [nM] | Ratio IC50 [2] | IC50 at 48 h [4] [nM] | selectivity ratio [2]
1 | CS(=O)(=O)[O-].Cn1c[n+](C)c2c1C(=O)c1ccccc1C2=O | 400 | – | – | – | 700 | 1.8 | – | –
2 | COc1ccc(Cn2c[n+](C)c3c2C(=O)c2cc4ccccc4cc2C3=O)cc1 | – | 860 | 80 | 800 | – | – | 64400 | –
3 | CCCCn1c[n+](C)c2c1C(=O)c1cc3ccccc3cc1C2=O | – | 670 | 59000 | 590 | – | – | 65100 | –
4 | Cn1c2c([n+](C)c1-c1ccccc1F)C(=O)c1cc3ccccc3cc1C2=O | – | 850 | – | – | – | – | 10700 | 13
5 | Cc1n(Cc2ccc(F)cc2)c2c([n+]1C)C(=O)c1cc3ccccc3cc1C2=O | – | 640 | 250 | 1360 | – | – | 76800 | –
6 | CCC(C)Cn1c[n+](C)c2c1C(=O)c1cc3ccccc3cc1C2=O (stereo unspecified) | – | 8400 | 700 | 1510 | – | – | 83900 | –
7 | CCCCn1c[n+](CCCC)c2c1C(=O)c1ccccc1C2=O | – | 510 | – | – | – | – | 6000 | 11.8
8 | O=C1c2ccccc2C(=O)c2c1n(-c1ccccc1)c[n+]2-c1ccccc1 | – | 76700 | – | – | – | – | 66900 | 0.87
9 | Cc1n(CC2OCCO2)c2c([n+]1C)C(=O)c1cc3ccccc3cc1C2=O | – | 320 | 230 | 1650 | – | – | 79900 | –
10 | CC(C)n1c[n+](C(C)C)c2c1C(=O)c1ccccc1C2=O | – | 630 | – | – | – | – | 18600 | 29.5
11 | CC(C)=CCn1c[n+](C)c2c1C(=O)c1cc3ccccc3cc1C2=O | – | 1810 | 22000 | 1130 | – | – | 58700 | –
12 | COCCn1c[n+](CCOC)c2c1C(=O)c1ccccc1C2=O | – | 610 | – | – | – | – | 9900 | 16.2
13 | C[n+]1cn(Cc2ccccc2)c2c1C(=O)c1cc3ccccc3cc1C2=O | – | 490 | 110 | 410 | – | – | 37100 | –
14 | Cn1c2c([n+](C)c1-c1ccccc1F)C(=O)c1ccccc1C2=O | – | 920 | – | – | – | – | 9200 | 10
15 | Cc1n(CC#N)c2c([n+]1C)C(=O)c1cc3ccccc3cc1C2=O | – | 460 | 670 | 720 | – | – | 9570 | –
16 | CCn1c[n+](CC)c2ccccc21 | – | > 100000 | – | – | – | – | > 200000 | < 10
17 | Cn1c[n+](C)c2c1C(=O)c1ccccc1C2=O.F[P-](F)(F)(F)(F)F | 170 | – | – | – | 1800 | 10.6 | – | –
18 | Cn1c[n+](C)c2c1C(=O)c1ccccc1C2=O.[I-] | 30 | – | – | – | 3520 | 117 | – | –
19 | Cn1c2c([n+](C)c1-c1ccco1)C(=O)c1ccccc1C2=O | – | 680 | – | – | – | – | 7000 | 10
20 | Cn1c[n+](C)c2c(O)c3c(c(O)c21)C1C=CC3C1 (stereo unspecified) | – | 31500 | – | – | – | – | 86000 | 2.7

Row | Structure (SMILES) | IC50 [3] [nM] | IC50 [5] [nM] | IC50 [6] [nM] | IC50 [7] [nM] | IC50 [1] [nM] | Ratio IC50 [2] | IC50 at 48 h [4] [nM] | selectivity ratio [2]
21 | Cc1n(Cc2ccccc2)c2c([n+]1C)C(=O)c1cc3ccccc3cc1C2=O | – | 880 | 520 | 780 | – | – | 30600 | –
22 | CC1=C(C)C(=O)c2c(n(C)c[n+]2C)C1=O | – | 32100 | – | – | – | – | 119000 | 3.7
23 | Cc1ccc(S(=O)(=O)[O-])cc1.Cn1c[n+](C)c2c1C(=O)c1ccccc1C2=O | 280 | – | – | – | 540 | 1.9 | – | –
24 | CCC(C)Cn1c2c([n+](C)c1C)C(=O)c1cc3ccccc3cc1C2=O (stereo unspecified) | – | 370 | 680 | 1360 | – | – | 43500 | –
25 | Cn1c[n+](C)c2c1C(=O)c1ccccc1C2=O.O=S(=O)([O-])C(F)(F)F | 70 | – | – | – | 2000 | 28.6 | – | –
26 | CCC(C)n1c[n+](C)c2c1C(=O)c1cc3ccccc3cc1C2=O (stereo unspecified) | – | 5650 | 2330 | 2760 | – | – | > 100000 | –
27 | CC(C)n1c[n+](C)c2c1C(=O)c1cc3ccccc3cc1C2=O | – | 450 | 420 | 750 | – | – | 84000 | –
28 | O=C1c2ccccc2C(=O)c2c1n(Cc1ccccc1)c[n+]2Cc1ccccc1 | – | 820 | – | – | – | – | 39000 | 47.6
29 | COCC[n+]1c2c(n(Cc3cnccn3)c1C)C(=O)c1cc3ccccc3cc1C2=O | – | 4500 | 910 | 1050 | – | – | 141000 | –
30 | C[n+]1cn(Cc2ccccc2F)c2c1C(=O)c1cc3ccccc3cc1C2=O | – | 380 | 190 | 470 | – | – | 17700 | –
31 | Cc1n(Cc2ccccc2F)c2c([n+]1C)C(=O)c1cc3ccccc3cc1C2=O | – | 460 | 550 | 530 | – | – | 12600 | –
32 | C[n+]1cn(Cc2cccc(F)c2)c2c1C(=O)c1cc3ccccc3cc1C2=O | – | 910 | 270 | 550 | – | – | 22800 | –
33 | CC(C)Cn1c[n+](C)c2c1C(=O)c1cc3ccccc3cc1C2=O | – | 1870 | 770 | 750 | – | – | 87400 | –
34 | C[n+]1cn(Cc2ccc(F)cc2)c2c1C(=O)c1cc3ccccc3cc1C2=O | – | 710 | 130 | 520 | – | – | 41100 | –
35 | Cc1n(Cc2cccc(F)c2)c2c([n+]1C)C(=O)c1cc3ccccc3cc1C2=O | – | 390 | 160 | 890 | – | – | 45900 | –
36 | CCCn1c[n+](CCC)c2c1C(=O)c1ccccc1C2=O | – | 650 | – | – | – | – | 9800 | 15.1
37 | CCn1c[n+](CC)c2c(OC)ccc(OC)c21 | – | 13600 | – | – | – | – | 95100 | 7
38 | CCCn1c2c([n+](C)c1C)C(=O)c1cc3ccccc3cc1C2=O | – | 1220 | 380 | 580 | – | – | 22100 | –
39 | CC(C)CCn1c[n+](C)c2c1C(=O)c1cc3ccccc3cc1C2=O | – | 9300 | 910 | 1780 | – | – | > 16400 | –

Further lines, with some results ahead:

Row | IC50 [3] [nM] | IC50 [5] [nM] | IC50 [6] [nM] | IC50 [7] [nM] | Structure (SMILES) | IC50 [1] [nM] | Ratio IC50 [2] | IC50 at 48 h [4] [nM] | selectivity ratio [2]
40 | – | 80 | – | – | Cn1c2c([n+](C)c1C1CC1)C(=O)c1ccccc1C2=O | – | – | 6200 | 78
41 | – | 220 | – | – | CCc1n(C)c2c([n+]1C)C(=O)c1cc3ccccc3cc1C2=O | – | – | 14600 | 66
42 | – | 90 | 90 | 330 | CCCCn1c2c([n+](C)c1C)C(=O)c1cc3ccccc3cc1C2=O | – | – | 13600 | –
43 | – | 210 | 80 | 460 | CCn1c2c([n+](C)c1C)C(=O)c1cc3ccccc3cc1C2=O | – | – | 23300 | –
44 | – | 210 | 70 | 180 | COCCOCCn1c[n+](C)c2c1C(=O)c1cc3ccccc3cc1C2=O | – | – | > 100000 | –
45 | – | 260 | 180 | 520 | CCn1c[n+](CC)c2c1C(=O)c1cc3ccccc3cc1C2=O | – | – | 63900 | –
46 | – | 50 | 50 | 420 | Cc1n(C)c2c([n+]1C)C(=O)c1cc3ccccc3cc1C2=O | – | – | 15100 | 302
47 | – | 240 | 80 | 100 | CCn1c[n+](C)c2c1C(=O)c1cc3ccccc3cc1C2=O | – | – | 49300 | –
48 | – | 80 | – | – | Cn1c2c([n+](C)c1C1CC1)C(=O)c1cc3ccccc3cc1C2=O | – | – | 15400 | 171
49 | – | 230 | 90 | 70 | COCCn1c2c([n+](C)c1C)C(=O)c1cc3ccccc3cc1C2=O | – | – | 11000 | –
50 | – | 250 | 390 | 1710 | C#CCn1c2c([n+](C)c1C)C(=O)c1cc3ccccc3cc1C2=O | – | – | 23800 | –
51 | – | 60 | – | – | CCn1c[n+](CC)c2c1C(=O)c1ccccc1C2=O | – | – | 5200 | 86.7
52 | – | 90 | – | – | Cc1n(C)c2c([n+]1C)C(=O)c1ccccc1C2=O | – | – | 2200 | 24
53 | – | 90 | – | – | Cn1c2c([n+](C)c1-c1ccco1)C(=O)c1cc3ccccc3cc1C2=O | – | – | 8900 | 99
54 | – | 60 | 80 | 410 | Cc1n(CC(C)C)c2c([n+]1C)C(=O)c1cc3ccccc3cc1C2=O | – | – | 15400 | –
55 | – | 60 | 70 | 400 | CC(C)=CCn1c2c([n+](C)c1C)C(=O)c1cc3ccccc3cc1C2=O | – | – | 5520 | –
56 | – | 70 | 420 | 880 | CCn1c2c([n+](CC)c1C)C(=O)c1cc3ccccc3cc1C2=O | – | – | 33800 | –
57 | – | 90 | 150 | 60 | Cc1n(C(C)C)c2c([n+]1C)C(=O)c1cc3ccccc3cc1C2=O | – | – | 17900 | –
58 | – | 40 | – | – | Cn1c[n+](C)c2c1C(=O)c1cccc([N+](=O)[O-])c1C2=O | – | – | 17500 | 438
59 | – | 160 | – | – | CCc1n(C)c2c([n+]1C)C(=O)c1ccccc1C2=O | – | – | 5600 | 35
